Assay results taken from patent US6545046B2, “Method for enhanced delivery of oxybutynin and compositions thereof” (Theramax Inc., priority 2000, dated 2003).
Read-outs that look alike come from different tables or passages of the source.

Tests used:
[1] = In vivo nasal, oral and intravenous delivery of oxybutynin in rats; plasma levels by HPLC; conditions: rat; for bioavailability: read-out: Bioavailability relative to intravenous administration (100%)
Method: The nasal absorption of oxybutynin was studied using an in vivo technique described previously (1). Male Sprague-Dawley rats (body weight 250±25 gm) were used in these studies. Animals were fasted overnight prior to experimentation. Surgical procedures were performed under equithesin anesthesia (3 ml/kg, i.p.). An incision was made in the neck, and the trachea cannulated with polyethylene tubing (PE-260). A closed end tube was inserted through the esophagus to the posterior part of the nasal cavity to prevent drug from entering the esophagus. The nasopalatine passage was then closed with an adhesive agent to prevent drainage of the drug from the nasal cavity to the mouth.
Blood samples were collected from a cannula inserted into the femoral artery. For intravenous drug administration, the jugular vein was cannulated.
Solutions of oxybutynin hydrochloride (5 mg/kg/100 μl) were prepared in normal saline and administered through the right nostril using a microsyringe. For oral administration, rats received an aqueous solution of oxybutynin hydrochloride (5 mg/kg) administered by gavage tube. For intravenous (i.v.) administration, the same dose of oxybutynin was injected into the jugular vein (1 ml/kg body weight). Blood samples after oxybutynin administration were collected before and at […] after drug administration, centrifuged, and serum removed and stored (−70° C.) until analysis.
Differences in the plasma oxybutynin or N-desethyloxybutynin concentrations between i.v., oral, and nasal delivery routes were compared using the Student's t test.
Analysis of oxybutynin and its metabolites N-desethyloxybutynin were performed using HPLC as described by Buyse et al. (2). Extraction of standards for calibration curve and plasma samples were performed as described previously by Hughes et al. (3).
Oxybutynin and its metabolite (N-desethyloxybutynin) were analyzed using a reverse-phase column (25 cm×[…] I.D.) and eluted with mobile phase consisting of 50% acetonitrile in […] potassium phosphate buffer, pH 6.3. The mixture was filtered and degassed prior to use. The flow rate was 0.7 ml/min, and the effluent was monitored with a dual UV detector system at 210 nm.
All determinations were performed by calculating the area ratios of each compound to the internal standard. Unknown amounts were determined from calibration curves run with each day's unknown analysis.

[2] = cited from earlier work
[3] = In vivo nasal, oral and intravenous delivery of oxybutynin in rats; plasma levels by HPLC; conditions: male, Sprague-Dawley, rat, mean ± SEM, read-out: AUC0-2 h
[4] = oral administration (Douchamps et al.); cited from earlier work

Row | SMILES | tmax ([1]; intranasal oxybutynin 5 mg/kg) [min] | Ratio N-desethyloxybutynin/Oxybutynin ([1]; intranasal oxybutynin 5 mg/kg, mean ± SEM, 4 rats) | Plasma concentration of N-desethyloxybutynin relative to parent compound oxybutynin ([1]; oral oxybutynin 5 mg/kg) | tmax ([1]; oral oxybutynin 5 mg/kg) [min] | Patient withdrawal ([2]; intravesical oxybutynin therapy, several studies) | Patients with adverse reactions requiring discontinuance of therapy ([2]; oral 5 mg 3 times daily, clinical studies) | AUC(0-t) ([3]; inhaled or intranasal, intranasal oxybutynin 5 mg/kg) [ng·h/mL] | AUC(0-t) ([3]; oral oxybutynin 5 mg/kg) [ng·h/mL] | bioavailability ([1]; male, Sprague-Dawley, plasma, other: intranasal, intranasal 5 mg/kg) [%] | bioavailability ([1]; male, Sprague-Dawley, plasma, oral 5 mg/kg) [%] | tmax ([1]; male, Sprague-Dawley, plasma, inhaled or intranasal, 5 mg/kg, intranasal oxybutynin 5 mg/kg, read-out: tmax (converted)) [min] | tmax ([1]; male, Sprague-Dawley, plasma, po, 5 mg/kg, oral oxybutynin 5 mg/kg (solution in water), read-out: tmax (converted)) [min] | Increase in bioavailability after intranasal compared to oral administration ([1]; 5 mg/kg) [fold] | tmax ([1]; oral oxybutynin 5 mg/kg (solution in water)) [min] | Systemic bioavailability [4] [%]
1 | CCNCC#CCOC(=O)C(O)(c1ccccc1)C1CCCCC1 (stereo not drawn) [N-desethyloxybutynin] | 96 | ~0.55 | approximately 12 fold | 66 | – | – | – | – | – | – | – | – | – | – | –
2 | CCN(CC)CC#CCOC(=O)C(O)(c1ccccc1)C1CCCCC1 (stereo not drawn) [oxybutynin, Benzeneacetic acid, a-cyclohexyl-a-hydroxy-4-(diethylamino)-2-butynyl ester] | – | – | – | – | up to 65% | about 20% | 1770 ± 190 | 180 ± 53 | 90 | ~9 | 10 | 30 to 40 | ~10 | 40 | < 6
